Experimental findings from PMC4546618, “Casitas B-Lineage Lymphoma RING Domain Inhibitors Protect Mice against High-Fat Diet-Induced Obesity and Insulin Resistance” (PLoS ONE, 2015) are described below.

Where a SMILES comes first, the peptide text is derived from it. [ ]: non-standard residue; d: D form. Pro(trans-4-F) = O=C(O)[C@@H]1C[C@@H](F)CN1; Phe(3-F) = N[C@@H](Cc1cccc(F)c1)C(=O)O; Phg = N[C@H](C(=O)O)c1ccccc1; Thz = O=C(O)[C@@H]1CSCN1 A value given as a limit tells only on which side of the number the result lay.

One data set deals with T1, Cbl (RING) protein (Homo sapiens, UniProt P22681).
T1 construct: including the linker and RING domain (codon 358–457); GST (Glutathione S-Transferase); made in house
T1 sequence (P22681 358-457): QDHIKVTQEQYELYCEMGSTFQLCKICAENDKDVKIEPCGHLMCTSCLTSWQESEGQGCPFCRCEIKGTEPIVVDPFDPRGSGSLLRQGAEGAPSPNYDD
Briefly: Fluorescence polarization (FP) assay, competition with FITC-βA-PFKPP-NH2 probe. The data set is classed as binding. Particulars: probe FITC-βA-PFKPP-NH2 100 nmol/L, Cbl (RING) protein 3 μmol/L, PBS pH 7.4. As for the experimental part:
Peptides and peptide mimetics were purchased from MitenChem (China) with a purity ≥ 98%. Concentrations values of reconstituted peptides were determined by amino acid analysis at the protein core facility (Chengdu Medical College). The recombinant Cbl protein was produced by the Chengdu Medical College Protein Core Facility and was described previously. The c-Cbl (RING) protein, including the linker and RING domain (codon 358–457), was tagged with Glutathione S-Transferase (GST) and purified with GSH-Sepharose (Shanghai Biopharma).
The FP assay was developed and validated previously. Briefly, fluorescein-labeled probe (FITC-βA-PFKPP-NH2, 100 nmol/L) and Cbl (RING) protein (3 μmol/L) were mixed and diluted to the final concentration using 0.01% Triton X-100 in PBS (pH = 7.4). Then, 19 μl of this master mix was loaded to each reaction well. The peptides or peptide mimetics were then loaded to the designated wells (1 μl, 10 μmol/L– 0.078 μmol/L, half-fold dilutions). The total fluorescence and polarization values were measured at an excitation wavelength of 485 nm and an emission wavelength of 538 nm using a ZS-2 plate reader. The data was fitted, and the ΔmP, Kd, and Ki values were estimated, using SigmaPlot 11.0.

For a further data set, the system named is mice. Briefly: Acute toxicity in mice. The data set is classed as in vivo. To be noted: up to 15 mg/kg i.p.; for signs of acute toxicity: 72 hours; for death of animals: another 14 days following the initial examination; for H&E staining of livers, spleens and kidneys: end of experiment. As for the experimental part: (§1) All experiments were approved by the institutional Animal Care and Use Committee (Chengdu Medical College, China). All experiments were carried out in 10-week-old male mice maintained on the C57BL/6 background. All the animals were kept on a 12-h light/dark cycle with free access to food and water.
The control group (n = 10) received vehicle only. Eight groups (10 mice each) were treated with increasing doses of either peptide 1, 3, 10, 34, 2, 60, 49, and 51 up to 15 mg/kg by i.p. Number of death, sedation, spontaneous motor activity, alertness, ptosis, dyspnea, convulsion, diarrhea, urination, postural reflex, piloerection, nociception, grooming, vocalization, rearing, climbing and aggression were observed every 12 hours for 72 h. Animals were maintained for another 14 days after the initial examination. We planned to sacrifice the animals if they show severe signs of pain or distress, a body weight loss in excess of 15% of its body weight, or a deterioration of the body condition score to BC2(-) or below. However, none of the animals qualified for the mentioned the symptoms. No animals died during the whole study. At the end of the experiment, animals were euthanized by CO2 asphyxiation followed by cervical dislocation, the livers, spleens and kidneys were collected and formalin-fixed paraffin-embedded for H&E staining.

Data set [1] can be described thus: Pharmacokinetic studies, plasma concentration after i.p. injection. Particulars: mice, i.p. 4 mg/kg; for Cmax: male, C57BL/6, mouse, plasma, ip, observed in 60 min, read-out: maximum concentration in plasma; for plasma concentrations compared to the parental peptides 1 and 2: at each time point after 1 hour. It is filed as in vivo. As for the experimental part:
as §1
Peptides (1, 3, 10, 34, 2, 60, 49, and 51) were dissolved in sterile aqueous 5% dextrose and administered to mice by i.p. injection (4 mg/kg). Blood samples were collected from the tail tip at 0, 0.5, 1, 6, 12, 18, 24 and 48 hours. Plasma samples were harvested by centrifugation and stored at -80°C until assayed. Peptide concentrations in plasma were determined by Reversed-Phase High-Performance Liquid Chromatography (RP-HPLC) with electrospray ionization mass spectrometric ([…]) detection. Samples were assayed with a series of 8 calibration standards of peptide in plasma at concentrations ranging from 50 to 6000 μg/L. Peptide concentrations were determined by comparing to the standards.

Data set [2] concerns mice fed a high-fat diet. Briefly: High-fat diet-induced obesity: body weight, food intake, body composition, adipocyte volume. To be noted: daily i.p. 5 mg/kg; for body weight gain vs vehicle, parental and negative control peptide groups: 12-week feeding period; for percentage of perigonadal fat mass / adipocyte volume: 12 weeks; for percentage of perigonadal fat mass: NMR, vehicle 8 ± 0.8%; for adipocyte volume: adipocytes from epididymal fat pad, vehicle 510 ± 42 pL. The data set is classed as in vivo. As for the experimental part:
as §1
(§2) Animals (n = 90) were randomly assigned to one of the nine groups (Table 1). Animals were fed ad libitum with a high-fat diet (60% of caloric intake from fat (70% saturated fat), 20% from carbohydrates, and 20% from protein) before experiments and for another 12 weeks during the experiments. Food intake was measured manually on a daily basis. Eight groups of animals were treated with indicated peptides with a daily i.p. injection at 5 mg/kg and one group of animals were treated with vehicle.
Body composition was measured using nuclear magnetic resonance (NMR) technology at Chengdu College core facility. Epididymal fat pads were excised and adipocytes were isolated. Cells were then fixed using 2% OsO4 in PBS overnight at 37°C [2].

Data set [3] has as its system mice fed a high-fat diet. Briefly: Glucose tolerance test after 12 weeks of treatment on high-fat diet. It is filed as in vivo. To be noted: overnight fasted mice, 2 g/kg glucose i.p., after 12 weeks daily i.p. 5 mg/kg on high-fat diet. As for the experimental part: as §1, §2
After receiving 12 weeks of treatment as described above, glucose tolerance tests were performed in overnight fasted mice. Each mouse received a 2 g/kg glucose through i.p. Blood samples were obtained from the tail tip at 0, 30, 60, 90, and 120 min. Insulin concentrations were measured using mouse insulin Elisa kits (ChrystalChem) using mouse standards. Glucose levels were measured using a glucometer (Roche).

Data set [4] has as its system mice fed a high-fat diet. In words: Indirect energy expenditure and physical activity measurement. To be noted: after 12 weeks daily i.p. 5 mg/kg on high-fat diet; for Oxygen consumption VO2: vehicle 4.15 ± 0.55; for Ambulatory day activity / Ambulatory night activity: photobeam break counts; for Ambulatory day activity: vehicle 2,069 ± 705; for Ambulatory night activity: vehicle 6,289 ± 1,216. The data set is classed as in vivo. The procedure: as §1, §2
After receiving 12 weeks of treatment as described above, rates of oxygen consumption (VO2) was measured using a four-chamber indirect calorimeter (Langguan, China, air flow of 0.5 l/min). A total of 2-hour measurement for each animal was conducted at 15-minuate intervals under room temperature (22°C). Ambulatory activity was estimated by counting the number of photobeam breaks in a three-sensor chamber instrument (Rui Pharm, China), and the cumulative ambulatory activity counts were recorded every hour. A total of 12 h-day time and 12 h-night activity were recorded for each animal.

Broadly, the Ki is a dissociation constant, usually derived from enzyme kinetics or from competition with a known ligand. Low readings indicate higher affinity, high ones lower affinity. Compound `CC(=O)N1CSC[C@H]1C(=O)N[C@@H](Cc1cccc(F)c1)C(=O)N[C@@H](CCCCN)C(=O)N1CCC[C@H]1C(=O)N1CCC[C@H]1C(N)=O` [Peptide 34, Ac-(r) (h)KPP-NH2] (Ac-[Thz][Phe(3-F)]KPP-NH2) returned an inhibition constant Ki on Cbl (RING) protein of 1500 ± 400 nM. In the data set on mice, the “signs of acute toxicity” value is recorded as “did not show vital signs of acute toxicity”; the death of animals entry was “None of the animals died”; the “H&E staining of livers, spleens and kidneys” value (“H&E staining of livers” below) was “does not show any sign of injuries”. For the same compound, in data set [1], the Cmax turned out to be 5020 ng/mL; the “plasma concentrations compared to the parental peptides 1 and 2” value is listed as “greater plasma concentrations”. In addition, in the data set with mice fed a high-fat diet [2], the “body weight gain vs vehicle, parental and negative control peptide groups” value (“body weight gain vs vehicle” below) was “significant differences in body weight gain”; the “percentage of perigonadal fat mass” value is 3.0 ± 0.9%; the adipocyte volume turned out to be 258 ± 29 pL. In the data set with mice fed a high-fat diet [3], the “blood insulin levels compared to the vehicle group” value is reported as “significant reduction in blood insulin levels” and the “glucose tolerance compared to the vehicle group” value is “better glucose tolerance”. Also, in the data set on mice fed a high-fat diet [4], the “Oxygen consumption VO2” value worked out at 5.88 ± 0.85 mL/g/h and the Ambulatory day activity was 3,485 ± 864 per 12 h.

Consider `CC(=O)N[C@@H](CCCCN)C(=O)N1CSC[C@H]1C(=O)N[C@@H](C)C(=O)N[C@H](C(=O)N[C@@H](CCCCN)C(N)=O)[C@@H](C)O` [Peptide 49, Ac-K(r)ATK-NH2] (Ac-K[Thz]ATK-NH2), for which affinity on Cbl (RING) protein was put at a Ki of 2900 ± 1200 nM. Also, in the data set with mice, the “signs of acute toxicity” value was “did not show vital signs of acute toxicity”; the death of animals entry is “None of the animals died”; the “H&E staining of livers” value was “does not show any sign of injuries”. For the same compound, in data set [1], the Cmax was 4680 ng/mL; the “plasma concentrations compared to the parental peptides 1 and 2” value is listed as “greater plasma concentrations”. Also, in the data set with mice fed a high-fat diet [2], the “body weight gain vs vehicle” value is “significant differences in body weight gain”; the “percentage of perigonadal fat mass” value is reported as 3.9 ± 0.4%; the adipocyte volume was determined as 230 ± 38 pL. In addition, in the data set on mice fed a high-fat diet [3], the “blood insulin levels compared to the vehicle group” value is “significant reduction in blood insulin levels” and the “glucose tolerance compared to the vehicle group” value is on record as “better glucose tolerance”. In the data set with mice fed a high-fat diet [4], the “Oxygen consumption VO2” value stood at 6.12 ± 0.58 mL/g/h, the Ambulatory day activity is listed as 4,012 ±1,207 per 12 h and the Ambulatory night activity is recorded as 20,126 ± 2,914 per 12 h.

In the case of `CC(=O)N1CCC[C@H]1C(=O)N[C@H](C(=O)N[C@@H](CCCCN)C(=O)N1CCC[C@H]1C(=O)N1CCC[C@H]1C(N)=O)c1ccccc1` [Peptide 3, Ac-P(a)KPP-NH2] (Ac-P[Phg]KPP-NH2), at Cbl (RING) protein, the Ki was over 500000 nM. In the data set with mice, the “signs of acute toxicity” value is listed as “did not show vital signs of acute toxicity”; the death of animals entry is reported as “None of the animals died”; the “H&E staining of livers” value is recorded as “does not show any sign of injuries”. Besides, in data set [1], the Cmax worked out at 4020 ng/mL; the “plasma concentrations compared to the parental peptides 1 and 2” value is listed as “greater plasma concentrations”. For the same compound, in the data set on mice fed a high-fat diet [2], the “percentage of perigonadal fat mass” value came to 7.1 ± 0.4% and the adipocyte volume is reported as 505 ± 34 pL. For the same compound, in the data set with mice fed a high-fat diet [3], the “glucose tolerance compared to the vehicle group” value is recorded as “not statistically significant”. Also, in the data set with mice fed a high-fat diet [4], the “Oxygen consumption VO2” value turned out to be 3.78 ± 0.29 mL/g/h, the Ambulatory day activity was 2,158 ± 763 per 12 h and the Ambulatory night activity was 6,058 ± 1,298 per 12 h.

For `CC(=O)N1CCC[C@H]1C(=O)N[C@@H](Cc1cccc(F)c1)C(=O)N[C@@H](CCCCN)C(=O)N1CCC[C@H]1C(=O)N1CCC[C@H]1C(N)=O` [Peptide 10, Ac-P(h)KPP-NH2] (Ac-P[Phe(3-F)]KPP-NH2), at Cbl (RING) protein, the inhibition constant Ki was 1800 ± 800 nM. In the data set on mice, the “signs of acute toxicity” value is “did not show vital signs of acute toxicity”; the death of animals entry is on record as “None of the animals died”; the “H&E staining of livers” value is on record as “does not show any sign of injuries”. Moreover, in data set [1], the Cmax is 4520 ng/mL; the “plasma concentrations compared to the parental peptides 1 and 2” value is recorded as “greater plasma concentrations”. In the data set with mice fed a high-fat diet [2], the “body weight gain vs vehicle” value is on record as “significant differences in body weight gain”; the “percentage of perigonadal fat mass” value is on record as 3.5 ± 0.5%; the adipocyte volume is given as 295 ± 31 pL. For the same compound, in the data set on mice fed a high-fat diet [3], the “blood insulin levels compared to the vehicle group” value was “significant reduction in blood insulin levels” and the “glucose tolerance compared to the vehicle group” value was “better glucose tolerance”. Further, in the data set with mice fed a high-fat diet [4], the “Oxygen consumption VO2” value was 5.92 ± 0.36 mL/g/h, the Ambulatory day activity is given as 3,512 ± 923 per 12 h and the Ambulatory night activity is 12,896 ± 2,469 per 12 h.

For `CC(=O)N[C@@H](CCCCN)C(=O)N1C[C@H](F)C[C@H]1C(=O)N[C@@H](C)C(=O)N[C@H](C(=O)N[C@@H](CCCCN)C(N)=O)[C@@H](C)O` [Peptide 51, Ac-K(t)ATK-NH2] (Ac-K[Pro(trans-4-F)]ATK-NH2), the Ki at Cbl (RING) protein worked out at 3800 ± 1100 nM. Besides, in the data set on mice, the “signs of acute toxicity” value is listed as “did not show vital signs of acute toxicity”; the death of animals entry is given as “None of the animals died”; the “H&E staining of livers” value is “does not show any sign of injuries”. Further, in data set [1], the Cmax worked out at 4620 ng/mL; the “plasma concentrations compared to the parental peptides 1 and 2” value is on record as “greater plasma concentrations”. Besides, in the data set with mice fed a high-fat diet [2], the “body weight gain vs vehicle” value is reported as “significant differences in body weight gain”; the “percentage of perigonadal fat mass” value is given as 4.0 ± 0.8%; the adipocyte volume was 250 ± 40 pL. Moreover, in the data set with mice fed a high-fat diet [3], the “blood insulin levels compared to the vehicle group” value is on record as “significant reduction in blood insulin levels” and the “glucose tolerance compared to the vehicle group” value is listed as “better glucose tolerance”. In the data set with mice fed a high-fat diet [4], the “Oxygen consumption VO2” value came to 5.99 ± 0.95 mL/g/h, the Ambulatory day activity is 4,953 ± 1,014 per 12 h and the Ambulatory night activity is reported as 19,251 ± 3,058 per 12 h.
